Test results as given in patent publication US5612204A, “Biological degradative treatment of chlorine substituted ethylene” (priority 1994, dated 1997).
Where two headings read alike, the source gives them in different places.

Key:
[1] = tested on: Nocardia corallina B-276 (FERM P-4094; FERM BP-5124; ATCC 31338); experiment: Reaction rate of degradation of chlorine-substituted substrates (Example 4, Table 1); type: cell-based
Experimental: Experiments were also carried on tetrachloroethylene (perchloroethylene) (PCE) and 1,2-dichloroethane (1,2-DCA).
The initial concentration of each substrate in the liquid phase was selected so as not to exceed 20 mg/l, i.e., the range in which no inhibition on the enzyme reaction is expected. Specifically, the substrate was added in an amount of […] which corresponded to 11.2 mg/l of trichloroethylene in terms of initial concentration in the liquid phase. […] The cell concentration during the reaction was set at 4.0 g/l or 8.0 g/l, and the concentration of the substrate remaining in the gas phase was measured with time in the same manner as in Example 3 and converted to the concentration in the liquid phase, from which the reaction rate was calculated.

[2] = tested on: Nocardia corallina B-276 (FERM P-4094; FERM BP-5124; ATCC 31338); experiment: Degradation of trichloroethylene by Nocardia corallina B-276 cell suspension (Example 1); type: cell-based; conditions: 1 mM trichloroethylene, glucose added, 30° C., 12 hours
Experimental: In a 500 ml Sakaguchi's flask was put 100 ml of NBG medium (a liquid medium containing 10 g of Lab-Lemco powder (produced by Oxoid Co., Ltd.), 10 g of bacteriological peptone, 10 g of glucose, 5 g of sodium chloride, and water to make 1 l, adjusted to pH 7.5 with a 1N aqueous sodium hydroxide solution, steam sterilized by autoclaving at 120° C. for 15 minutes) and inoculated with three loopfuls of Nocardia corallina B-276 (FERM P-4094; FERM BP-5124; ATCC 31338) using a platinum loop, followed by shake culture at 30° C. for 96 hours for previous proliferation.
The resulting culture was centrifuged to collect the microbial cells, which were suspended in 50 ml of a minimal medium (K2 HPO4 1.74 g, MgSO4. 7H2 O 1.5 g, FeSO4. H2 O 0.05 g, deionized water 1 l; adjusted to pH 8.0) to prepare a cell suspension. […]
For comparison, 50 ml of a cell-free medium (K2 HPO4 1.74 g, MgSO4.7H2 O 1.5 g, FeSO4. H2 O 0.05 g, deionized water 1 l; adjusted to pH 8.0) was put to a flask of the same volume as used above, and 2.5 ml of a 10% glucose solution and trichloroethylene (final concentration: 1 mM) were added thereto. […] The signal intensity (I2) was 95% or more of the initial signal intensity (I0) measured on the medium immediately after addition of trichloroethylene.

[3] = tested on: E. coli JM109 (pDBB-1) (FERM BP-4250), transformant having an alkene monooxygenase gene of Nocardia corallina B-276 origin; experiment: Degradation of trichloroethylene by transformant E. coli JM109 (pDBB-1) cell suspension (Example 2); type: cell-based, Escherichia coli; conditions: 1 mM trichloroethylene, glucose added, 30° C., 12 hours
Experimental: LB medium (1.5 ml) (a liquid medium containing 10 g of Bacto-trypton, 5 g of Bacto-yeast extract, 10 g of sodium chloride, and deionized water to make 1 l, adjusted to pH 7.2 with a 1N aqueous […] solution, steam sterilized by autoclaving at 120° C. for 15 minutes) containing 50 μg/ml of ampicillin was inoculated with one loopful of E. coli JM109 (pDBB-1) (FERM BP-4250) using a platinum loop, which is a transformant having an alkene monooxygenase gene of Nocardia corallina B-276 origin, and incubated at 37° C. overnight (about 14 hours) for previous proliferation of the microorganism. Then, 100 ml of LB medium containing 50 μg/ml of ampicillin was inoculated with the resulting culture and incubated at 37° C. for 2 hours. To the culture was added isopropyl-β-D-thiogalactopyranoside (IPTG) at a final concentration of 1 mM, followed by further shake culture at 37° C. for 5 hours. A 10 ml aliquot of the resulting culture was centrifuged to collect the microbial cells, which were suspended in 2 ml of a minimal medium (K2 HPO4 1.74 g, MgSO4.7H2 O 1.5 g, FeSO4.H2 O 0.05 g, deionized water 1 l; adjusted to pH 8.0) to prepare a cell suspension. […]

[4] = tested on: Nocardia corallina B-276 (FERM P-4094; FERM BP-5124; ATCC 31338); experiment: Influence of trichloroethylene concentration on reaction rate of biological oxidation (Example 3); type: cell-based; conditions: 35° C.
From the text: In the biological oxidation of trichloroethylene with Nocardia corallina B-276 (FERM […]; FERM BP-5124; ATCC 31338), the influence of the trichloroethylene concentration on the reaction rate was examined as follows.
Nocardia corallina B-276 (FERM P-4094; FERM BP-5124; ATCC 31338) was previously proliferated in the same manner as described in Example 1. The microbial cells collected were suspended in a medium (K2 HPO4 1.74 g, MgSO4 .7H2 O 1.5 g, FeSO4.H2 O 0.05 g, deionized water 1 l; adjusted to pH 8.0) to prepare a cell suspension.
In a 17 ml-volume flask was put 2 ml of the cell suspension, 100 μl of a 10% glucose solution added as an energy source, a varied amount of trichloroethylene added thereto, and the flask sealed and incubated at 35° C. for 5 hours while shaking to allow the cells to act on the trichloroethylene. The cell concentration was 2.44 g/l. A 1 ml aliquot of the gas was taken out every 1 hour from the gas phase of the sealed flask and analyzed by gas chromatography (column: Porapak Q) to measure the gaseous trichloroethylene concentration. The trichloroethylene concentration remaining in the liquid phase was calculated from the gaseous phase trichloroethylene concentration. This calculation was made on the assumption that the partitioning of trichloroethylene between the gas and liquid phases in the vial are obeyed by the partition law.
FIG. 3 is a graph of rate of reduction of liquid phase trichloroethylene concentration plotted against initial trichloroethylene concentration.

[5] = Cell Concentration 4.0 g/l, initial substrate concentration not exceeding 20 mg/l

Row | SMILES | degradability by Nocardia corallina B-276 ([1]; result in words) | Reaction Rate [1, 5] [mg/L/h] | Reaction Rate ([1]; cell concentration 4.0 g/l) [mg/l hr] | degradability by Nocardia corallina B-276 [1] | further results
1 | C=C(Cl)Cl [1,1-Dichloroethylene, 1,1-dichloroethylene] | can be degraded |  |  |  | Reaction Rate ([1]; Cell Concentration 8.0 g/l, initial substrate concentration not exceeding 20 mg/l): 14.8 mg/L/h; reaction rate, corresponding value (for the cell concentration of the other substrates) ([1]; converted from the 8.0 g/l measurement): 7.4 mg/l hr
2 | ClCCCl [1,2-Dichloroethane, 1,2-dichloroethane] | cannot be degraded | 0 |  |  | 
3 | ClC(Cl)=C(Cl)Cl [Tetrachloroethylene, tetrachloroethylene] | cannot be degraded | 0 |  |  | 
4 | ClC=C(Cl)Cl [Trichloroethylene, trichloroethylene] |  | 5.5 | 5.5 |  | trichloroethylene degraded [2]: about 98%; trichloroethylene concentration remaining in the medium (signal intensity I1 relative to I2) ([2]; sealed flask, gas chromatography, relative to cell-free medium): about 2%; trichloroethylene degraded [3]: about 17%; trichloroethylene concentration remaining in the medium (signal intensity I4 relative to I3) ([3]; sealed flask, gas chromatography): about 83%; Michaelis constant Km of the trichloroethylene substrate ([4]; cell concentration 2.44 g/l, calculated based on the results of FIG. 3): 90.4 mg/L; Km ([4]; cell concentration 2.44 g/l, calculated based on the results of FIG. 3, read-out: Michaelis constant Km of the trichloroethylene substrate): 678 µM; inhibition of the reaction by substrate ([4]; at least up to 90 mg/l of the initial trichloroethylene concentration in the liquid phase): no obvious inhibition
5 | Cl/C=C\Cl [cis-1,2-Dichloroethylene, cis-1,2-dichloroethylene] |  | 72.2 |  | can be degraded | 
6 | Cl/C=C/Cl [trans-1,2-dichloroethylene] |  | 6.5 | 6.5 | can be degraded | 
